Data taken from ChEMBL document CHEMBL1127815, “Homodimeric and heterodimeric bis(amino thiol) oxometal complexes with rhenium(V) and technetium(V). Control of heterodimeric complex formation and an approach to metal complexes that mimic steroid hormones” (J Med Chem, 1994).

How the values were obtained:
Rattus norvegicus [1] = assay: Biodistribution in Sprague-Darwley rat liver at 15 min after intravenous administration of 70g; assay type: ADME, organism-based; conditions: in vivo, 0.25 h
Rattus norvegicus [2] = assay: Biodistribution in Sprague-Darwley rat fat at 120 min after intravenous administration of 70g; assay type: ADME, organism-based, Adipose tissue; conditions: in vivo, 2 h
Rattus norvegicus [3] = assay: Biodistribution in Sprague-Darwley rat rest of brain at 120 min after intravenous administration of 70g; assay type: ADME, organism-based; conditions: in vivo, 2 h
Rattus norvegicus [4] = assay: Biodistribution in Sprague-Darwley rat blood at 2 min after intravenous administration of 70g; assay type: ADME, organism-based; conditions: in vivo
Rattus norvegicus [5] = assay: Biodistribution in Sprague-Darwley rat liver at 30 min after intravenous administration of 70g; assay type: ADME, organism-based; conditions: in vivo, 0.5 h
Rattus norvegicus [6] = assay: Biodistribution in Sprague-Darwley rat heart at 15 min after intravenous administration of 70g; assay type: ADME, organism-based; conditions: in vivo, 0.25 h
Rattus norvegicus [7] = assay: Biodistribution in Sprague-Darwley rat kidney at 30 min after intravenous administration of 70g; assay type: ADME, organism-based; conditions: in vivo, 0.5 h
Rattus norvegicus [8] = assay: Biodistribution in Sprague-Darwley rat rest of brain at 30 min after intravenous administration of 70g; assay type: ADME, organism-based; conditions: in vivo, 0.5 h
Rattus norvegicus [9] = assay: Biodistribution in Sprague-Darwley rat fat at 2 min after intravenous administration of 70g; assay type: ADME, organism-based, Adipose tissue; conditions: in vivo
Rattus norvegicus [10] = assay: Biodistribution in Sprague-Darwley rat fat at 15 min after intravenous administration of 70g; assay type: ADME, organism-based, Adipose tissue; conditions: in vivo, 0.25 h
Rattus norvegicus [11] = assay: Biodistribution in Sprague-Darwley rat lung at 15 min after intravenous administration of 70g; assay type: ADME, organism-based; conditions: in vivo, 0.25 h
Rattus norvegicus [12] = assay: Biodistribution in Sprague-Darwley rat muscle at 30 min after intravenous administration of 70g; assay type: ADME, organism-based, Muscle tissue; conditions: in vivo, 0.5 h
Rattus norvegicus [13] = assay: Biodistribution in Sprague-Darwley rat kidney at 2 min after intravenous administration of 70g; assay type: ADME, organism-based; conditions: in vivo
Rattus norvegicus [14] = assay: Biodistribution in Sprague-Darwley rat blood at 15 min after intravenous administration of 70g; assay type: ADME, organism-based; conditions: in vivo, 0.25 h
Rattus norvegicus [15] = assay: Biodistribution in Sprague-Darwley rat blood at 30 min after intravenous administration of 70g; assay type: ADME, organism-based; conditions: in vivo, 0.5 h
Rattus norvegicus [16] = assay: Biodistribution in Sprague-Darwley rat lung at 30 min after intravenous administration of 70g; assay type: ADME, organism-based; conditions: in vivo, 0.5 h
Rattus norvegicus [17] = assay: Biodistribution in Sprague-Darwley rat fat at 30 min after intravenous administration of 70g; assay type: ADME, organism-based, Adipose tissue; conditions: in vivo, 0.5 h
Rattus norvegicus [18] = assay: Biodistribution in Sprague-Darwley rat liver at 120 min after intravenous administration of 70g; assay type: ADME, organism-based; conditions: in vivo, 2 h
Rattus norvegicus [19] = assay: Biodistribution in Sprague-Darwley rat lung at 2 min after intravenous administration of 70g; assay type: ADME, organism-based; conditions: in vivo
Rattus norvegicus [20] = assay: Biodistribution in Sprague-Darwley rat heart at 60 min after intravenous administration of 70g; assay type: ADME, organism-based; conditions: in vivo, 1 h
Rattus norvegicus [21] = assay: Biodistribution in Sprague-Darwley rat kidney at 60 min after intravenous administration of 70g; assay type: ADME, organism-based; conditions: in vivo, 1 h
Rattus norvegicus [22] = assay: Biodistribution in Sprague-Darwley rat heart at 2 min after intravenous administration of 70g; assay type: ADME, organism-based; conditions: in vivo
Rattus norvegicus [23] = assay: Biodistribution in Sprague-Darwley rat rest of brain at 2 min after intravenous administration of 70g; assay type: ADME, organism-based; conditions: in vivo
Rattus norvegicus [24] = assay: Biodistribution in Sprague-Darwley rat muscle at 2 min after intravenous administration of 70g; assay type: ADME, organism-based, Muscle tissue; conditions: in vivo
Rattus norvegicus [25] = assay: Biodistribution in Sprague-Darwley rat muscle at 15 min after intravenous administration of 70g; assay type: ADME, organism-based, Muscle tissue; conditions: in vivo, 0.25 h
Rattus norvegicus [26] = assay: Biodistribution in Sprague-Darwley rat kidney at 15 min after intravenous administration of 70g; assay type: ADME, organism-based; conditions: in vivo, 0.25 h
Rattus norvegicus [27] = assay: Biodistribution in Sprague-Darwley rat muscle at 60 min after intravenous administration of 70g; assay type: ADME, organism-based, Muscle tissue; conditions: in vivo, 1 h
Rattus norvegicus [28] = assay: Biodistribution in Sprague-Darwley rat blood at 120 min after intravenous administration of 70g; assay type: ADME, organism-based; conditions: in vivo, 2 h
Rattus norvegicus [29] = assay: Biodistribution in Sprague-Darwley rat heart at 120 min after intravenous administration of 70g; assay type: ADME, organism-based; conditions: in vivo, 2 h
Rattus norvegicus [30] = assay: Biodistribution in Sprague-Darwley rat muscle at 120 min after intravenous administration of 70g; assay type: ADME, organism-based, Muscle tissue; conditions: in vivo, 2 h
Rattus norvegicus [31] = assay: Biodistribution in Sprague-Darwley rat liver at 60 min after intravenous administration of 70g; assay type: ADME, organism-based; conditions: in vivo, 1 h
Rattus norvegicus [32] = assay: Biodistribution in Sprague-Darwley rat fat at 60 min after intravenous administration of 70g; assay type: ADME, organism-based, Adipose tissue; conditions: in vivo, 1 h
Rattus norvegicus [33] = assay: Biodistribution in Sprague-Darwley rat lung at 120 min after intravenous administration of 70g; assay type: ADME, organism-based; conditions: in vivo, 2 h
Rattus norvegicus [34] = assay: Biodistribution in Sprague-Darwley rat rest of brain at 60 min after intravenous administration of 70g; assay type: ADME, organism-based; conditions: in vivo, 1 h
Rattus norvegicus [35] = assay: Biodistribution in Sprague-Darwley rat blood at 60 min after intravenous administration of 70g; assay type: ADME, organism-based; conditions: in vivo, 1 h
Rattus norvegicus [36] = assay: Biodistribution in Sprague-Darwley rat lung at 60 min after intravenous administration of 70g; assay type: ADME, organism-based; conditions: in vivo, 1 h
Rattus norvegicus [37] = assay: Biodistribution in Sprague-Darwley rat heart at 30 min after intravenous administration of 70g; assay type: ADME, organism-based; conditions: in vivo, 0.5 h
Rattus norvegicus [38] = assay: Biodistribution in Sprague-Darwley rat rest of brain at 15 min after intravenous administration of 70g; assay type: ADME, organism-based; conditions: in vivo, 0.25 h
Rattus norvegicus [39] = assay: Biodistribution in Sprague-Darwley rat kidney at 120 min after intravenous administration of 70g; assay type: ADME, organism-based; conditions: in vivo, 2 h
Rattus norvegicus [40] = assay: Biodistribution in Sprague-Darwley rat liver at 2 min after intravenous administration of 70g; assay type: ADME, organism-based; conditions: in vivo

[N-(2-Mercapto-2-methylpropyl)-N-(4-methoxyphenyl)-aminato][2-(mercaptomethyl)pyridinato]oxotechnetium V
ID/g (Rattus norvegicus [1]): 3.69%
ID/g (Rattus norvegicus [2]): 1.128%
ID/g (Rattus norvegicus [3]): 0.128%
ID/g (Rattus norvegicus [4]): 0.681%
ID/g (Rattus norvegicus [5]): 2.987%
ID/g (Rattus norvegicus [6]): 0.721%
ID/g (Rattus norvegicus [7]): 1.075%
ID/g (Rattus norvegicus [8]): 0.283%
ID/g (Rattus norvegicus [9]): 0.241%
ID/g (Rattus norvegicus [10]): 0.511%
ID/g (Rattus norvegicus [11]): 0.83%
ID/g (Rattus norvegicus [12]): 0.255%
ID/g (Rattus norvegicus [13]): 3.117%
ID/g (Rattus norvegicus [14]): 0.316%
ID/g (Rattus norvegicus [15]): 0.213%
ID/g (Rattus norvegicus [16]): 0.434%
ID/g (Rattus norvegicus [17]): 0.297%
ID/g (Rattus norvegicus [18]): 2.892%
ID/g (Rattus norvegicus [19]): 4.24%
ID/g (Rattus norvegicus [20]): 0.305%
ID/g (Rattus norvegicus [21]): 1.281%
ID/g (Rattus norvegicus [22]): 3.285%
ID/g (Rattus norvegicus [23]): 1.346%
ID/g (Rattus norvegicus [24]): 0.364%
ID/g (Rattus norvegicus [25]): 0.379%
ID/g (Rattus norvegicus [26]): 1.291%
ID/g (Rattus norvegicus [27]): 0.167%
ID/g (Rattus norvegicus [28]): 0.192%
ID/g (Rattus norvegicus [29]): 0.151%
ID/g (Rattus norvegicus [30]): 0.107%
ID/g (Rattus norvegicus [31]): 3.309%
ID/g (Rattus norvegicus [32]): 1.071%
ID/g (Rattus norvegicus [33]): 0.224%
ID/g (Rattus norvegicus [34]): 0.185%
ID/g (Rattus norvegicus [35]): 0.202%
ID/g (Rattus norvegicus [36]): 0.344%
ID/g (Rattus norvegicus [37]): 0.386%
ID/g (Rattus norvegicus [38]): 0.63%
ID/g (Rattus norvegicus [39]): 1.779%
ID/g (Rattus norvegicus [40]): 4.121%
